Our source for the IC50 values is ChEMBL document CHEMBL5729070, “Substituted pyrrolo[1,2-a]pyrazines and pyrrolo[1,2-a][1,4]diazepines as TREX1 inhibitors” (2022).

The nature of this assay: Exonuclease Assay: To evaluate the effect of compounds on TREX1 activity, test compounds were serially diluted (11-point, 3-fold) from 10 mM stock solutions and delivered to 384-well low-volume assay plates in 80 nL DMSO using an acoustic dispenser. Next, 4 μL of human TREX1 (0.5 nM), or murine TREX1 (1 nM), diluted in assay buffer (20 mM Tris pH 7.5, 5 mM MgCl2, 100 μg/mL BSA, 0.002% Triton X-100, 2 mM DTT), was added to the assay plate. After incubating for 30 minutes, 4 μL of labeled DNA oligonucleotide (500 nM) in assay buffer was added to initiate TREX1 exonuclease activity. The reaction was allowed to proceed for 45 minutes at room temperature prior to the addition of 4 μL of 150 mM EDTA to halt TREX1 activity. Assay plates were equilibrated for an additional 30 minutes and read on an EnVision Plate Reader (Perkin Elmer) to measure fluorescence emission at 535 nm following excitation at 485 nm. Fluorescence was plotted as a function of log molar compound concentration and fit to four-parameter dose-response equation to determine compound IC50.

In the case of `CC(C)C[C@H](C(=O)NCc1ccc(Cl)c(Cl)c1)N1CCC(C=[S+](C)([O-])c2ccccc2)N2C[C@H](N)C[C@H]2C1=O` (some centres not stated), the IC50 was below 1 µM.

As for `CC(C)C[C@H](NC(=O)Cc1ccc(Cl)c(Cl)c1)N1CCC(CCc2ccccc2)N2C[C@H](N)C[C@H]2C1=O` (some centres not stated), the IC50 entry is “in the range around 5.5 µM”.

One may read the IC50 as the point on the concentration scale where inhibition reaches its midpoint. A lower IC50 goes with inhibition by little substance.
